# Experimental data from patent publication US12440550B2 (priority 2015, dated 2025).
# Tested on: Calu-3 cells
# Format: cell-based, human
row,Compound,increase in transduction efficiency with respect to virus formulated in saline (factor)
1,OC[C@@H](O)[C@@H](O)[C@H](O)[C@@H](O)CO [sorbitol],did not significantly enhance transduction
2,OC[C@@H](O)[C@@H](O)[C@H](O)[C@H](O)CO [mannitol],1.61
3,OC[C@H]1O[C@@](CO)(O[C@H]2O[C@H](CO)[C@@H](O)[C@H](O)[C@H]2O)[C@@H](O)[C@@H]1O [sucrose],1.96
4,"CCCCCCCCCCCCO[C@@H]1O[C@H](CO)[C@@H](O[C@H]2O[C@H](CO)[C@@H](O)[C@H](O)[C@H]2O)[C@H](O)[C@H]1O [nDMPS, N-dodecyl-β-D-maltopyranoside, reference compound]",second most efficacious formulation
5,OC[C@H]1O[C@@](CO)(O[C@H]2O[C@H](CO)[C@@H](O)[C@H](O)[C@H]2O)[C@@H](O[C@H]2O[C@H](CO)[C@@H](O)[C@H](O)[C@H]2O)[C@@H]1O [melezitose],1.51
6,OC[C@H]1O[C@H](OC[C@H]2O[C@H](O[C@]3(CO)O[C@H](CO)[C@@H](O)[C@@H]3O)[C@H](O)[C@@H](O)[C@@H]2O)[C@H](O)[C@@H](O)[C@H]1O [raffinose],did not significantly enhance transduction

# Tested on: Calu-3 cells
# Remark: another data set of the same source
row,Compound,cell lysis [%]
1,"CCCCCCCCCCCCO[C@@H]1O[C@H](CO)[C@@H](O[C@H]2O[C@H](CO)[C@@H](O)[C@H](O)[C@H]2O)[C@H](O)[C@H]1O [nDMPS, N-dodecyl-β-D-maltopyranoside, reference compound]",> 80
